Patent US11999803B2, “Proteasome inhibitors” (University of Kentucky Research Foundation, priority 2018, dated 2024)

How the values were obtained:
[1] = test system: LPS-stimulated BV-2 cells; test: Cytokine and chemokine protein array in LPS-stimulated BV-2 cells; type: cell-based; conditions: 3 μM with LPS (1 μg/mL)
Method: With reference to FIG. 2, cytokine production was assessed in LPS-stimulated BV-2 cells. Cytokine and chemokine protein array blots were obtained from BV-2 cells treated with vehicle, LPS (1 μg/mL) alone, and YU102 (3 μM) or ONX0914 (3 μM) with LPS (1 μg/mL). The signal intensity of each cytokine or chemokine was expressed relative to the mean of the intensity of the corresponding spots from vehicle control sample. The bar graph depicts the fold change of each cytokine or chemokine (mean).

[2] = test system: APP transgenic mouse model of AD (Tg2576); test: Passive avoidance test in Tg2576 mice; type: in vivo; conditions: Student's t-test, p-value<0.05, n=8
Method: (§1) FIG. 1A includes a schematic illustration showing the experimental schedule for a behavior test to assess cognitive impairment following administration of YU102 or YU102 epimer, as compared to control. YU102 is an inhibitor of the immunoproteasome subunit LMP2.
(§2) With reference to FIG. 1C, upon the completion of the Morris water maze test, Tg2576 mice were evaluated in the probe trial (left) and passive avoidance test (right). Statistical analyses of probe trial and passive avoidance were performed via Student's t-test.

[3] = target: T1, LMP2 (Mus musculus, UniProt P28076); test: Proteasome activities in tissue of treated mice, fluorogenic substrates; type: in vivo; conditions: Tg2576 mice, p-value<0.05, n=3
T1 construct: proteasome activities in brain, spleen, and liver tissue collected from mice treated with vehicle (control), YU102 (10 mg/kg); from tissue; host or cells: brain, spleen and liver tissue of Tg2576 mice
Method: With reference to FIG. 1D, proteasome activities in brain, spleen, and liver tissue collected from mice treated with vehicle (control), YU102 (10 mg/kg), or YU102 epimer (10 mg/kg) were measured using fluorogenic substrates.

[4] = test system: LMP2; test: LMP2 inhibition (figure legend); type: biochemical
[5] = test system: APP transgenic mouse model of AD (Tg2576); test: Morris water maze test in Tg2576 mice; type: in vivo
Method: as §1
With reference to FIG. 1B, cognitive function in Tg2576 mice was evaluated by the Morris water maze test, and escape latency time (left) and escape distance of the mice (right) was assessed. Statistical analyses of escape latency and escape distance were performed via two-way ANOVA.

[6] = test system: APP transgenic mouse model of AD (Tg2576); test: Probe trial in Tg2576 mice; type: in vivo; conditions: Student's t-test, p-value<0.05, n=8
Method: as §1, §2

Row | Structure (SMILES) | cytokine production [1] | step through latency, difference between control and treated mice [2] | LMP2 inhibitory activity in spleen and liver tissues, difference between YU102-treated and YU102 epi-treated group ([3]; 10 mg/kg each) | LMP2 inhibitory activity in spleen and liver tissues, difference between control and treated group ([3]; 10 mg/kg) | LMP2 inhibition [4] | cognitive deficits ([5]; APPsw (Tg2576) mice, FIGS. 1A-1D) | escape distance, difference between control and treated mice ([5]; Tg2576 mice, days 3-5, two-way ANOVA, p-value<0.05, n=8) | time spent in target quadrant, difference between control and treated mice [6]
1 | CC(=O)NCC(=O)N1CCC[C@H]1C(=O)N[C@@H](Cc1ccccc1)C(=O)N[C@@H](CC(C)C)C(=O)[C@@]1(C)CO1 [YU102] | suppression of cytokine production | statistically significant | statistically significant | statistically significant | selective LMP2 inhibitor | amelioration of cognitive deficits | statistically significant | statistically significant
2 | CC(=O)NCC(=O)N1CCC[C@H]1C(=O)N[C@@H](Cc1ccccc1)C(=O)N[C@@H](CC(C)C)C(=O)[C@]1(C)CO1 [YU102 epi] |  |  |  |  | does not inhibit LMP2 |  |  | 
